Measured values reported in ChEMBL document CHEMBL4138184 (J Nat Prod, 2017).

Legend:
[1] = tested on: MCF7; experiment: Inhibition of cell migration in human MCF7 cells at 100 uM after 24 hrs by inverted fluorescence microscopy based scratch assay relative to control; assay type: functional; conditions: MCF7, 24 h
[2] = molecular target: T1, Melatonin receptor type 1A (Homo sapiens, UniProt P48039)
[3] = tested on: MDA-MB-231; experiment: Antiproliferative activity against human MDA-MB-231 cells after 24 hrs by MTT assay; assay type: functional, cell-based; conditions: MDA-MB-231, 24 h
[4] = tested on: MDA-MB-231; experiment: Inhibition of cell migration in human MDA-MB-231 cells at 100 uM after 24 hrs by inverted fluorescence microscopy based scratch assay relative to control; assay type: functional; conditions: MDA-MB-231, 24 h
[5] = tested on: BT-549; experiment: Inhibition of cell migration in human BT549 cells at 100 uM after 24 hrs by inverted fluorescence microscopy based scratch assay relative to control; assay type: functional; conditions: BT-549, 24 h
[6] = Inhibition of cell migration in mouse mammary carcinoma cell at 100 uM after 24 hrs by inverted fluorescence microscopy based scratch assay relative to control; assay type: functional
[7] = tested on: BT-549; experiment: Antiproliferative activity against human BT549 cells after 24 hrs by MTT assay; assay type: functional, cell-based; conditions: BT-549, 24 h
[8] = tested on: MDA-MB-231; experiment: Antiproliferative activity against human MDA-MB-231 cells at 1 nM to 100 uM after 24 hrs by MTT assay relative to control; assay type: functional; conditions: at 0.001 to 100 µM
[9] = tested on: BT-549; experiment: Antiproliferative activity against human BT549 cells at 1 nM to 100 uM after 24 hrs by MTT assay relative to control; assay type: functional; conditions: at 0.001 to 100 µM
[10] = tested on: MCF7; experiment: Antiproliferative activity against human MCF7 cells at 1 nM to 100 uM after 24 hrs by MTT assay relative to control; assay type: functional; conditions: at 0.001 to 100 µM
[11] = Antiproliferative activity against mouse mammary carcinoma cell at 1 nM to 100 uM after 24 hrs by MTT assay relative to control; assay type: functional; conditions: at 0.001 to 100 µM
[12] = tested on: MCF7; experiment: Antiproliferative activity against human MCF7 cells after 24 hrs by MTT assay; assay type: functional, cell-based; conditions: MCF7, 24 h
[13] = Antiproliferative activity against mouse mammary carcinoma cell after 24 hrs by MTT assay; assay type: functional
[14] = molecular target: T1, Melatonin receptor type 1A; remark: listed apart in the source

T1 sequence (P48039 whole entry): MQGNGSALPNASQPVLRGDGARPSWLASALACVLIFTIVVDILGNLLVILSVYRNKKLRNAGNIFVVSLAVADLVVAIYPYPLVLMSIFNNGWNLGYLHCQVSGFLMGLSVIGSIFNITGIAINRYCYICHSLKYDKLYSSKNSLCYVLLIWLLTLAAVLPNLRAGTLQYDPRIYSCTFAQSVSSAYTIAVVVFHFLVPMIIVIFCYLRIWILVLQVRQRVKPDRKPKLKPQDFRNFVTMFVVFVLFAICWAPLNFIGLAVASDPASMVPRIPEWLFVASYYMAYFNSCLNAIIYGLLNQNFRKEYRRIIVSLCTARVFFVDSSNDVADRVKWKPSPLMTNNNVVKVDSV

| SMILES | inhibition at 100 µM [1] [%] | Ki [2] [µM] | IC50 [3] [µM] | inhibition at 100 µM [4] [%] | inhibition at 100 µM [5] [%] | inhibition at 100 µM [6] [%] | IC50 [7] [µM] | Efficacy [8] [%] | Efficacy [9] [%] | Efficacy [10] [%] | Efficacy [11] [%] | IC50 [12] [µM] | IC50 [13] [µM] | KiH [14] [nM] | KiL [14] [nM] |
| --- | --- | --- | --- | --- | --- | --- | --- | --- | --- | --- | --- | --- | --- | --- | --- |
| CC(C)=CCC/C(C)=C/COc1ccc2ccc(=O)oc2c1 | 3 | 1.9 | 80 | -36 | 7 | 5 | 24 | 67 | 86 | 90 | 57 | – | – | – | – |
| COc1cc(/C=C/C(=O)O)ccc1O [FERULATE] | – | – | 0.5 | – | – | – | 1.2 | 92 | 99 | 96 | 100 | – | – | – | – |
| COc1cc(/C=C/C(=O)O)ccc1OCC=C(C)C [BOROPINIC ACID] | – | – | – | – | – | – | 15 | 89 | 97 | 102 | 98 | 0.7 | 6.1 | – | – |
| O=c1ccc2ccc(O)cc2o1 [UMBELLIFERONE] | – | – | 3.7 | – | – | – | 1000 | 88 | 91 | 124 | 93 | 2.9 | – | – | – |
| COc1cc(/C=C/C(=O)O)ccc1OC/C=C(\C)CCC=C(C)C | – | 59 | 22 | – | – | – | 5.6 | 79 | 93 | 102 | 99 | – | 2.5 | – | – |
| O=c1ccc2ccc(O/C=C/c3ccccc3)cc2o1 | – | 0.37 | 6.6 | – | – | – | 140 | 82 | 86 | 87 | 93 | 2.2 | – | – | – |
| CCC#CCOc1ccc2ccc(=O)oc2c1 [7-(2-PENTYNYLOXY)COUMARIN] | – | 0.888 | – | – | – | – | 74 | 87 | 86 | 89 | 101 | 50 | 24 | – | – |
| COc1cc(/C=C/C=O)ccc1OCC=C(C)C [BOROPINAL] | – | 0.786 | 63 | – | – | – | 0.045 | 79 | 83 | 94 | 96 | – | 0.22 | – | – |
| CC(C)=CCOc1ccc2ccc(=O)oc2c1 [7-PRENYLOXYCOUMARIN] | – | 5.2 | – | – | – | – | 37 | 83 | 94 | 105 | 98 | – | – | – | – |
| CC(C)=CCC/C(C)=C/CC/C(C)=C/COc1ccc2ccc(=O)oc2c1 [UMBELLIPRENIN] | 9 | – | 30 | -52 | 23 | 7 | – | 60 | 85 | 81 | 61 | – | – | 1.6 | 3.3 |
| COc1ccc2[nH]cc(CCNC(C)=O)c2c1 [MELATONIN] | – | – | 0.9 | – | – | – | 30000 | 92 | 91 | 87 | 91 | – | 0.2 | – | – |
